According to paper PMC10987949, “Inhibition of HIV-1 release by ADAM metalloproteinase inhibitors” (Frontiers in Microbiology, 2024):

Key:
[1] = molecular target: T1, recombinant HIV-1 protease (Human immunodeficiency virus type 1 group M subtype B, UniProt P04585); assay: HIV-1 protease fluorogenic substrate cleavage; type: biochemical; details: 100nM saquinavir or nelfinavir; MMP inhibitors up to 10uM
T1 construct: recombinant HIV-1 protease; purchased Sigma-Aldrich SRP2151
Protocol: HIV-1 protease enzymatic activity was assayed in black 96-well plates at room temperature using a Synergy_h1 fluorescent plate reader with 340 nm excitation and 490 nm emission wavelengths (BioTek). Each enzymatic reaction consisted of a mixture of 100 ng of recombinant HIV-1 protease (Sigma-Aldrich catalog SRP2151), 5 μM concentration of a fluorogenic substrate Arg-Glu(EDANS)-[…]DABCYL)-Arg (Sigma-aldrich catalog H6660), and various concentrations of inhibitor compounds in 100 μL of assay buffer (0.15 M sodium chloride, 1.0 mM EDTA, 1.0 mM DTT, 0.1 M sodium acetate, pH 5.0). The fluorescence of the cleavage reaction was continuously read at every 30 s for a total of 40 min.

TNFα release = TNFα release ELISA, stimulated CD4 T cells; type: cell-based, human; details: PHA or anti-CD3 stimulated CD4 T cells
Protocol: PBMC from de-identified healthy donors were obtained with informed consent from the Department of Transfusion Medicine, National Institutes of Health under Biological reagent Registry RD-14-IX-12 approved by NIH biological safety board. CD8-depleted PBMCs, either stimulated or non-stimulated with 10 μg/mL phytohaemagglutinin (PHA) or anti-CD3 antibody (with or without conjugated beads), were plated at 2×10^6 cells/ml in 48 well plates in RPMI 1640 + 10%FBS (R10) to a final volume of 1 mL in each well. IL-2 was added at a final concentration of 20 U/mL. CD3 antibody okt3 was used at ~0.2 μg/mL final concentration. Compounds were prepared in appropriate solvents according to the manufacturer’s instructions, diluted to working concentrations using RPMI 1640 + 10%FBS (R10), and added to the cell cultures for 6–24 h for CD62L shedding, and 48 h for TNF-α release. Supernatants were collected and assessed using either the CD62L or TNF-α Duo Set ELISA kit according to manufacturer’s instructions (R&D Systems, Inc.). The viability of cells treated with compounds was assessed by acridine orange / propidiom iodide (AO/PI Logosbio catalog F23001) staining using Luna-FL cell counter following the manufacture’s instruction.^2

HIV-1 = assay: Ex vivo HIV-1 release from CD4 T cells of HIV-1 infected individuals; type: cell-based; details: 50 μM; for effect on viral release (virion-associated HIV RNA): CD4 T cells from six HIV-1 infected individuals, day 2 and 4
Protocol: PBMCs were collected from the study subjects in accordance with a clinical protocol approved by the Institutional Review Board of the National Institute of Allergy and Infectious Diseases, National Institutes of Health under protocol #02-I-0202. CD4^+ T cells were isolated from the PBMCs using a human CD4 T cell separation system (StemCell Technologies, Catalog 19052) and were cultured with medium alone or with plate-bound anti-CD3 and soluble anti-CD28 antibody in the absence or presence of 50 μM of indicated compounds for 48 h. The copy number of cell-free viron-associated HIV RNA in the culture supernatants was quantified using the Cobas Ampliprep/Cobas Taqman HIV-1 Test, Version 2.0 (Roche Diagnostics) with droplet digital PCR (ddPCR, BIO-RAD) on day 2 and 4 of stimulation.

CD4 T cells = assay: RNA sequencing of CD4 T cells, pathway gene expression; type: cell-based, human; details: compound alone
Protocol: CD4+ T cells were enriched from PBMC using EasySep™ human CD4 T cell enrichment kit ([…] Technologies Inc., MA 02142). To prepare samples for RNA sequencing, 5-10×10^6 PBMC or CD4+ T cells from either infected or uninfected samples were lysed for RNA isolation using RNeasy mini kit from QIAGEN. Samples of 2–10 μg RNA with concentration > 25 ng/μl and OD260/280 > 2.0 were used for cDNA library preparation of 250–300 base pair fragments in length, and high throughput sequencing using Illumina Miseq platform by Novogene (Novogene Corp Inc., CA 91914). A total of ~20×10^6 reads were recorded for each sample (Table 3). The mapping and assembly of raw sequencing reads, statistical and preliminary bioinformatic analyses were performed by Novogene. Subsequent gene expression analyses were performed based on expected Fragments Per Kilobase of transcript sequence per Millions base pairs sequenced (FPKM) using sequences of 20 reads or higher. All differential gene expression analyses were done between infected samples in the presence or absence of treatment and their donor matched uninfected controls. […] The RNAseq data is available in GEO database under accession number GSE218175.

HIV-1LAI = assay: TEM of immunogold labeled CD62L on HIV-1LAI infected PBMC; type: cell-based
Protocol: For immunogold labeling, ~10^6 cells were washed with 2 mL PBS, gently centrifuged at 250 g for 5 min, resuspended in 100 μL of labeling buffer (PBS with 1% BSA), and incubated with 10 μg of mouse anti-human CD62L (clone FMC46, Thermofisher) for 1 h on ice. After removal of the primary antibody and wash, cells were incubated with 10 μg of secondary goat anti-mouse IgG H&L conjugated to 10 nm gold nanoparticles (Electron Microscopy Sciences) for 1 h on ice, then washed and fixed in 2.5% glutaraldehyde with 0.1 M sodium cacodylate at pH 7.4. Specimens for transmission electron microscopy (TEM) were fixed with 2.5% glutaraldehyde in 0.1 M Sorenson’s buffer. Samples were post-fixed 1 h with 0.5% osmium tetroxide/0.8% potassium ferricyanide, 1 h with 1% tannic acid and overnight with 1% uranyl acetate at 4°C. Samples were dehydrated with a graded ethanol series and embedded in Spurr’s resin. Thin sections were cut with a Leica UCT ultramicrotome (Vienna, Austria) stained with 1% uranyl acetate and Reynold’s lead citrate prior to viewing at 80 kV on a Hitachi 7500 transmission electron microscope (Hitachi-High Technologies, Tokyo, Japan). Approximately 100 images were acquired with an AMT digital camera system (AMT, Chazy, NY) from each sample on sections containing HIV virions. HIV virions are identified as ~100 nm sized particles with visible membrane enclosed capsid.

Row | SMILES | effect on HIV protease cleavage of fluorogenic substrate [1] | effect on TNFα release (TNFα release) | effect on viral release (virion-associated HIV RNA) (HIV-1) | reductions in released virion-associated RNA (HIV-1; day 2 and 4 post stimulation) | transcription of type I interferon pathway genes (CD4 T cells; uninfected CD4 T cells) | expressions of cell cycle genes (CD4 T cells; without HIV-1 infection) | gold particles bound to cell surface virions (HIV-1LAI; 50 μM, count in TEM images) | gold particles bound to released virions (HIV-1LAI; 50 μM, count in TEM images) | fraction of virion-associated gold particles on CD62L-tethered (budding) virions (HIV-1LAI; in presence of compound, DMSO 45%) [%] | fraction of virion-associated gold particles on released virions (HIV-1LAI; in presence of compound, DMSO 55%) [%]
1 | CNC(=O)[C@H](Cc1ccccc1)NC(=O)[C@H](CC(C)C)[C@H](CSc1cccs1)C(=O)NO [BB-94, Batimastat] | none of the MMP inhibitors, including BB-94, prinomastat, GM6001 and DMDP, inhibited the activity of HIV protease | inhibited | inhibited the viral release from all individuals | 2–50 fold | does not suppress the transcription of type I interferon pathway genes | decreased slightly the expressions of cell cycle genes | 63 | 17 | 79 | 21
2 | CC1(C)SCCN(S(=O)(=O)c2ccc(Oc3ccncc3)cc2)[C@H]1C(=O)NO [prinomastat] | none of the MMP inhibitors, including BB-94, prinomastat, GM6001 and DMDP, inhibited the activity of HIV protease | – | inhibited viral release in a portion of the samples | – | – | – | – | – | – | –
